Results as given in ChEMBL document CHEMBL6109057, “Synthesis of harmaline N-9 derivatives and investigation of in vitro anticancer activity” (Bioorg Med Chem Lett, 2025).
Activity calls are given as the source filed them. The calls are words filed in the database; no cut-off is given here.

Assays:
[1] = test system: HCT-116; assay: Antiproliferative activity against human HCT-116 cells assessed as cell viability at 50 uM measured after 24 hrs relative to control; assay type: functional; details: read-out: Activity
[2] = test system: MGC-803; assay: Antiproliferative activity against human MGC-803 cells assessed as cell viability at 50 uM measured after 24 hrs relative to control; assay type: functional; details: read-out: Activity
[3] = test system: MCF7; assay: Antiproliferative activity against human MCF7 cells assessed as cell viability at 50 uM measured after 24 hrs relative to control; assay type: functional; details: read-out: Activity
[4] = test system: HCT-116; assay: Antiproliferative activity against human HCT-116 cells assessed as reduction in cell viability measured after 24 hrs; assay type: functional, cell-based; details: HCT-116, 24 h
[5] = test system: MGC-803; assay: Antiproliferative activity against human MGC-803 cells assessed as reduction in cell viability measured after 24 hrs; assay type: functional, cell-based; details: MGC-803, 24 h
[6] = test system: MCF7; assay: Antiproliferative activity against human MCF7 cells assessed as reduction in cell viability measured after 24 hrs; assay type: functional, cell-based; details: MCF7, 24 h
[7] = test system: HCT-116; assay: Antiproliferative activity against human HCT-116 cells assessed as reduction in cell viability at 50 uM measured after 24 hrs; assay type: functional, cell-based
[8] = test system: MGC-803; assay: Antiproliferative activity against human MGC-803 cells assessed as reduction in cell viability at 50 uM measured after 24 hrs; assay type: functional, cell-based
[9] = test system: MCF7; assay: Antiproliferative activity against human MCF7 cells assessed as reduction in cell viability at 50 uM measured after 24 hrs; assay type: functional, cell-based
[10] = Cytotoxicity against HEK293FT cells assessed as reduction in cell viability measured after 24 hrs; assay type: toxicity, cell-based; details: human
[11] = test system: MGC-803; assay: Antimigratory activity against human MGC-803 cells assessed as migration rate at 2.5 uM measured after 24 hrs scratch assay (reference value: 40.72 +/- 0.86%); assay type: functional
[12] = test system: MGC-803; assay: Antimigratory activity against human MGC-803 cells assessed as migration rate at 5 uM measured after 24 hrs scratch assay (reference value: 40.72 +/- 0.86%); assay type: functional
[13] = test system: MGC-803; assay: Antimigratory activity against human MGC-803 cells assessed as increase in number of floating cells at 10 uM measured after 24 hrs by scratch assay; assay type: functional, cell-based
[14] = test system: MGC-803; assay: Antimigratory activity against human MGC-803 cells assessed as increase in aggregated dead cells at 10 uM measured after 24 hrs by scratch assay; assay type: functional, cell-based
[15] = test system: MGC-803; assay: Antimigratory activity against human MGC-803 cells assessed as migration rate at 2.5 uM measured after 48 hrs scratch assay (reference value: 63 +/- 1.61%); assay type: functional
[16] = test system: MGC-803; assay: Antimigratory activity against human MGC-803 cells assessed as migration rate at 5 uM measured after 48 hrs scratch assay (reference value: 63 +/- 1.61%); assay type: functional
[17] = test system: MGC-803; assay: Antimigratory activity against human MGC-803 cells assessed as increase in large number of dead cells at 10 uM measured after 48 hrs by scratch assay; assay type: functional, cell-based
[18] = Inhibition of cell clone formation in human MGC-803 cells assessed as percentage of area of cell clones at 1 uM (reference value: 1 +/- 0.02%); assay type: functional; set-up: scale not given: the % may be the effect or the level left
[19] = Inhibition of cell clone formation in human MGC-803 cells assessed as percentage of area of cell clones at 1.5 uM (reference value: 1 +/- 0.02%); assay type: functional; set-up: scale not given: the % may be the effect or the level left
[20] = Inhibition of cell clone formation in human MGC-803 cells assessed as percentage of area of cell clones at 2.5 uM (reference value: 1 +/- 0.02%); assay type: functional; set-up: scale not given: the % may be the effect or the level left
[21] = test system: MGC-803; assay: Effect on metabolic changes in human MGC-803 cells assessed as upregulation of leucine level at 4 uM by 1H-NMR analysis; assay type: functional, cell-based
[22] = test system: MGC-803; assay: Effect on metabolic changes in human MGC-803 cells assessed as upregulation of glycine level at 4 uM by 1H-NMR analysis; assay type: functional, cell-based
[23] = test system: MGC-803; assay: Effect on metabolic changes in human MGC-803 cells assessed as down regulation of taurine level at 4 uM by 1H-NMR analysis; assay type: functional, cell-based
[24] = test system: MGC-803; assay: Effect on metabolic changes in human MGC-803 cells assessed as down regulation of NAD+ level at 4 uM by 1H-NMR analysis; assay type: functional, cell-based
[25] = test system: MGC-803; assay: Effect on metabolic changes in human MGC-803 cells assessed as down regulation of GSH level at 4 uM by 1H-NMR analysis; assay type: functional, cell-based
[26] = test system: MGC-803; assay: Effect on metabolic changes in human MGC-803 cells assessed as down regulation of creatine level at 4 uM by 1H-NMR analysis; assay type: functional, cell-based
[27] = test system: MGC-803; assay: Effect on metabolic changes in human MGC-803 cells assessed as down regulation of choline phosphate level at 4 uM by 1H-NMR analysis; assay type: functional, cell-based
[28] = test system: MGC-803; assay: Effect on metabolic changes in human MGC-803 cells assessed as down regulation of aspartic acid level at 4 uM by 1H-NMR analysis; assay type: functional, cell-based
[29] = test system: MGC-803; assay: Effect on metabolic changes in human MGC-803 cells assessed as down regulation of AMP level at 4 uM by 1H-NMR analysis; assay type: functional, cell-based
[30] = test system: MGC-803; assay: Effect on metabolic changes in human MGC-803 cells assessed as down regulation of ADP level at 4 uM by 1H-NMR analysis; assay type: functional, cell-based
[31] = test system: HeLa; assay: Antiproliferative activity against human HeLa cells assessed as reduction in cell viability measured after 48 hrs by 3-(4,5-dimethylthiazol-2-yl)-2,5-diphenyltetrazolium bromide assay; assay type: functional, cell-based
[32] = test system: HepG2; assay: Antiproliferative activity against human HepG2 cells assessed as reduction in cell viability measured after 48 hrs by 3-(4,5-dimethylthiazol-2-yl)-2,5-diphenyltetrazolium bromide assay; assay type: functional, cell-based; details: HepG2, 48 h
[33] = test system: NCI-H1299; assay: Antiproliferative activity against human NCI-H1299 cells assessed as reduction in cell viability measured after 48 hrs by MTT assay; assay type: functional, cell-based; details: NCI-H1299, 48 h
[34] = test system: A549; assay: Antiproliferative activity against human A549 cells assessed as reduction in cell viability measured after 48 hrs by MTT assay; assay type: functional, cell-based; details: A549, 48 h
[35] = test system: SGC-7901; assay: Antiproliferative activity against human SGC-7901 cells assessed as reduction in cell viability measured after 48 hrs by MTT assay; assay type: functional, cell-based; details: SGC-7901, 48 h
[36] = test system: U-87 MG; assay: Antiproliferative activity against human U87 cells assessed as reduction in cell viability measured after 24 hrs; assay type: functional, cell-based, U-87MG ATCC
[37] = test system: U-87 MG; assay: Antiproliferative activity against human U87 cells assessed as reduction in cell viability measured after 48 hrs; assay type: functional, cell-based, U-87MG ATCC
[38] = test system: 4T1; assay: Antiproliferative activity against mouse 4T1 cells assessed as reduction in cell viability measured after 24 hrs by MTT assay; assay type: functional, cell-based; details: 4T1, 24 h

COc1ccc2c3c(n(CCCCn4c5cc(OC)ccc5c5ccnc(C)c54)c2c1)C(C)=NCC3
viability at 50 µM [1]: < 10%
viability at 50 µM [2]: < 10%
viability at 50 µM [3]: < 10%
IC50 [4]: 4.5 µM
IC50 [5]: 10.2 µM
IC50 [6]: 18.7 µM

COc1ccc2c3c(n(Cc4cccc(C)c4)c2c1)C(C)=NCC3
Activity [7]: Active
Activity [8]: Active
Activity [9]: Active

COc1ccc2c3c(n(C/C=C/c4ccccc4)c2c1)C(C)=NCC3
Activity [7]: Active
Activity [8]: Active
Activity [9]: Active

COc1ccc2c3c(n(CCCCBr)c2c1)C(C)=NCC3
Activity [7]: Active
Activity [8]: Active
Activity [9]: Active

COc1ccc2c3c(n(Cc4ccc(C)cc4)c2c1)C(C)=NCC3
Activity [7]: Active
Activity [8]: Active
Activity [9]: Active

COc1ccc2c3c(n(CCCCCn4c5cc(OC)ccc5c5ccnc(C)c54)c2c1)C(C)=NCC3
viability at 50 µM [1]: < 10%
viability at 50 µM [2]: < 10%
viability at 50 µM [3]: < 10%
IC50 [4]: 3.84 µM
IC50 [5]: 5.26 µM
IC50 [6]: 8.67 µM
IC50 at 24 h [10]: 47.6 µM
Activity [11]: 25.5%
Activity [12]: 20.76%
Activity [13]: Active
Activity [14]: Active
Activity [15]: 44.14%
Activity [16]: 33.65%
Activity [17]: Active
Activity [18]: 0.56%
Activity [19]: 0.33%
Activity [20]: 0.02%
Activity [21]: Active
Activity [22]: Active
Activity [23]: Active
Activity [24]: Active
Activity [25]: Active
Activity [26]: Active
Activity [27]: Active
Activity [28]: Active
Activity [29]: Active
Activity [30]: Active

C=CCn1c2c(c3ccc(OC)cc31)CCN=C2C
Activity [7]: Active
Activity [8]: Active
Activity [9]: Active

COc1ccc2c3c([nH]c2c1)C(C)=NCC3 [HARMALINE]
IC50 [31]: 28 µM
IC50 [32]: 11.2 µM
IC50 [33]: 48.2 µM
IC50 [34]: 67.9 µM
IC50 [35]: 4.08 µM
IC50 [36]: 208 µM
IC50 [37]: 127 µM
IC50 [38]: 30.9 µM
viability at 50 µM [1]: ~75%
viability at 50 µM [2]: ~120%
viability at 50 µM [3]: ~71%

C#CCn1c2c(c3ccc(OC)cc31)CCN=C2C
Activity [7]: Active
Activity [8]: Active
Activity [9]: Active

COC(=O)Cn1c2c(c3ccc(OC)cc31)CCN=C2C
Activity [7]: Active
Activity [8]: Active
Activity [9]: Active

COc1ccc2c3ccnc(C)c3n(CCCCCn3c4cc(OC)ccc4c4ccnc(C)c43)c2c1
viability at 50 µM [1]: ~31%
viability at 50 µM [2]: ~59%
viability at 50 µM [3]: ~35%

COc1ccc2c3c(n(Cc4ccccc4F)c2c1)C(C)=NCC3
Activity [7]: Active
Activity [8]: Active
Activity [9]: Active

COc1ccc2c3c(n(CCc4ccc(F)cc4)c2c1)C(C)=NCC3
Activity [7]: Active
Activity [8]: Active
Activity [9]: Active

COc1ccc2c3c(n(CCCCCBr)c2c1)C(C)=NCC3
Activity [7]: Active
Activity [8]: Active
Activity [9]: Active

COC(=O)CCCn1c2c(c3ccc(OC)cc31)CCN=C2C
Activity [7]: Active
Activity [8]: Active
Activity [9]: Active

COc1ccc2c3c(n(Cc4ccccc4C)c2c1)C(C)=NCC3
Activity [7]: Active
Activity [8]: Active
Activity [9]: Active

COc1ccc2c3c(n(CCCCCCBr)c2c1)C(C)=NCC3
viability at 50 µM [1]: < 10%
viability at 50 µM [2]: < 10%
viability at 50 µM [3]: < 10%
IC50 [4]: 8.95 µM
IC50 [5]: 15.4 µM
IC50 [6]: 18.5 µM

COc1ccc2c3c(n(Cc4ccc(F)cc4)c2c1)C(C)=NCC3
Activity [7]: Active
Activity [8]: Active
Activity [9]: Active

COc1ccc2c3c(n(Cc4ccc5ccccc5c4)c2c1)C(C)=NCC3
viability at 50 µM [1]: < 10%
viability at 50 µM [2]: < 10%
viability at 50 µM [3]: < 10%
IC50 [4]: 6.32 µM
IC50 [5]: 21.4 µM
IC50 [6]: 11.9 µM

COc1ccc2c3c(n(CCCCCCn4c5cc(OC)ccc5c5ccnc(C)c54)c2c1)C(C)=NCC3
Activity [7]: Active
Activity [8]: Active
Activity [9]: Active

COc1ccc2c3c(n(Cc4ccccc4)c2c1)C(C)=NCC3
Activity [7]: Active
Activity [8]: Active
Activity [9]: Active

COc1ccc2c3c(n(Cc4cccc(F)c4)c2c1)C(C)=NCC3
Activity [7]: Active
Activity [8]: Active
Activity [9]: Active

COC(=O)CCCCn1c2c(c3ccc(OC)cc31)CCN=C2C
Activity [7]: Active
Activity [8]: Active
Activity [9]: Active

COC(=O)CCn1c2c(c3ccc(OC)cc31)CCN=C2C
Activity [7]: Active
Activity [8]: Active
Activity [9]: Active
